In patent US9738684B2, “N-terminally modified linear and branched polyamine conjugated peptidomimetics as antimicrobials agents” (COUNCIL OF SCIENTIFIC & INDUSTRIAL RESEARCH, priority 2015, dated 2017):
Converted amounts (≈) assume the structure as drawn.

How the values were obtained:
S. aureus (ATCC 29213) = test: MIC, serial broth dilution; assay type: cell-based, Staphylococcus aureus; details: MHB, 18 h, 37° C.
Method: (§1) The peptidomimetics designed in present invention were evaluated as antibacterial therapeutics against a broad range of bacterial strains by broth microdilution method. The antibacterial activity of the peptidomimetics was reported in terms of the minimum inhibitory concentrations (MIC).
(§2) Following bacterial strains were used in this study: S. aureus (ATCC 29213), methicillin resistant S. aureus (ATCC 33591), Staphylococcus epidermidis (ATCC 12228), methicillin resistant Staphylococcus epidermidis(ATCC 51625), Enterococcus faecalis (ATCC 7080), Escherichia coli (ATCC 11775), and Acinetobacter baumannii (ATCC 19606). Antibacterial activity was evaluated using a modified serial broth dilution method in accordance with Clinical Laboratory Standard Institute guidelines [Methods for dilution antimicrobial susceptibility tests for bacteria that grow aerobically-7th ed. Approved standard M7-A7. Clinical and Laboratory Standards Institute, Wayne, Pa., Biochim. Biophys. Acta 1798:1864-1875, 2010.]. Briefly, the inoculums were prepared from mid-log phase bacterial cultures. Peptidomimetics were incubated with bacterial suspension in Muller Hinton broth media (10^5 CFU/mL) in 96 well microtitre plate. The plates were incubated overnight with agitation (200 rpm) at 37° C. After 18 h, absorbance was measured at 630 nm. Cultures without test peptidomimetics were used as positive control. Un-inoculated Mueller Hinton Broth (MHB) was used as negative control. Tests were carried out in duplicate on at least three different days. […] For comparison standard peptide antibiotics vancomycin (VAN) and polymyxin B (PMB) were also assayed under identical conditions (Table 2). […] Further, antibacterial activity of active peptidomimetics 1c and 1d were also evaluated against MRSA in presence of 25% v/v human serum as well as bovine serum.

[1] = system: methicillin resistant S. aureus (ATCC 33591); test: MIC, serial broth dilution; assay type: cell-based, Staphylococcus aureus; details: MHB, 18 h, 37° C.
Method: as §1, §2

[2] = system: Staphylococcus epidermidis (ATCC 12228); test: MIC, serial broth dilution; assay type: cell-based; details: MHB, 18 h, 37° C.
Method: as §1, §2

[3] = system: Acinetobacter baumannii (ATCC 19606); test: MIC, serial broth dilution; assay type: cell-based; details: MHB, 18 h, 37° C.
Method: as §1, §2

[4] = system: methicillin resistant Staphylococcus epidermidis (ATCC 51625); test: MIC, serial broth dilution; assay type: cell-based; details: MHB, 18 h, 37° C.
Method: as §1, §2

[5] = system: Enterococcus faecalis (ATCC 7080); test: MIC, serial broth dilution; assay type: cell-based; details: MHB, 18 h, 37° C.
Method: as §1, §2

[6] = system: Escherichia coli (ATCC 11775); test: MIC, serial broth dilution; assay type: cell-based; design: MIC E. coli. (ATCC 11775): unit not given here; details: MHB, 18 h, 37° C.
Method: as §1, §2

MRSA = test: Membrane depolarization with DiSC3(5) dye; assay type: cell-based, Staphylococcus aureus; details: up to the highest concentration tested
Method: For determination of membrane depolarizing ability of designed peptidomimetics, a membrane potential sensitive dye DiSC3(5) was used as described previously with minor modifications [Org Biomol. Chem. 10: 8326-8335, 2012; J. Am. Chem. Soc., 132: 18417-18428, 2010.]. Briefly, overnight grown MRSA was sub cultured into MHB for 2-3 h at 37° C. to obtain mid-log phase cultures. The cells were centrifuged at 4000 rpm for 10 min at 25° C., washed, and re-suspended into respiration buffer (5 mM HEPES, 20 mM glucose, pH 7.4) to obtain a diluted suspension of OD600˜0.05. Then DiSC3(5) [0.18 μM in DMSO], was added to 500 μL aliquotes of the re-suspended cells and allowed to stabilize for 1 h. Baseline fluorescence was acquired using a Edinburg F900 spectrofluorometer by excitation at 622 nm and emission at 670 nm in a 1 cm path length cuvette. Bandwidth of 5 nm was employed for excitation and emission. Subsequently, increasing concentrations of test peptidomimetics were added to the stabilized cells and the increase of fluorescence on account of the de-quenching of DiSC3(5) dye was measured after every 2 min to obtain the maximal depolarization. Increase in relative fluorescence unit (RFU) was plotted against increasing concentrations of different peptidomimetics or PMB. […] The increase in fluorescence for lipid tagged peptidomimetics was concentration dependent up to 9.9 μg/mL and henceforth, got saturated resulting into plateau like dose response curves. The experiment was repeated twice on two consecutive days and produced similar results.

[7] = system: human red blood cells (hRBC); test: Hemolytic activity; assay type: cell-based; details: 250 μg/mL, 1 h at 37° C.
Method: Hemolytic activity of the peptidomimetics was evaluated on human red blood cells (hRBC) as described previously with minor modifications [FEBS J, 273:4040-4054, 2006; Biochim Biophys Acta., 1798:1864-1875, 2010]. Briefly, 100 μL of fresh hRBC suspension 4% v/v in NaCl/Pi (35 mM phosphate buffer, 150 mM NaCl, pH 7.2) was placed in a 96-well plate. After incubation of the peptidomimetics (100 μL) in the hRBC suspension for 1 h at 37° C., the plates were centrifuged and supernatant (100 μL) was transferred to fresh 96-well plate. Absorbance was read at 540 nm using ELISA plate reader (Molecular Devices). Percent hemolysis was calculated using the following formula: % hemolysis=100[(A−A0)/(At−A0)]
Where, A represents absorbance of sample wells at 540 nm. Also A0 and At represents 0% and 100% hemolysis determined in NaCl/Pi and 1% Triton X-100, respectively (Table 2). […] Peptidomimetics 1e and 1f caused 31% and 30% hemolysis at 250 μg/mL. Peptidomimetics 2d, 2e and 2f caused significant hemolysis with 83%, 96% and 88% damage to hRBCs at […] respectively.

all the tested strains = test: Antibacterial activity; assay type: cell-based; details: series 2
Method: as §2

S. aureus (ATCC 33591) = test: Resistance development study, serial passage at sub MIC; assay type: cell-based, Staphylococcus aureus; details: 17 serial passages at sub MIC
Method: FIG. 5: Illustration of resistance development study in S. aureus (ATCC 33591) after 17 serial passages with sub MIC of 1c/1d or antibiotic treatment. The fold change in MIC is the ratio of the MIC after 17 passages relative to that MIC observed before first passage.
To determine potential of active peptidomimetics against resistance development, in vitro serial passage method at sub inhibitory concentration was done. Briefly, bacterial suspension (100 μL) from duplicate wells at the concentration of sub-MIC was used to inoculate fresh culture. The culture was grown to obtain approximately 10^5 CFU/mL for the next experiment. These bacterial suspensions were then incubated with desired concentration of antibacterial agents for 18 h to determine new MIC. The same sub culturing protocol was used for next 16 passages and MIC was determined using OD630 nm as described previously in the text [Chem. Biol., 20:1286-1295, 2013.]

Compound | MIC S. aureus (ATCC 29213) (S. aureus (ATCC 29213)) | MIC MRSA (ATCC 33591) [1] | MIC S. epidermidis (ATCC 12228) [2] | MIC A. baumannii (ATCC 19606) [3] | MIC MRSE (ATCC 51625) [4] | MIC E. facaelis (ATCC 7080) [5] | MIC E. coli. (ATCC 11775) [6] | change in relative fluorescence unit (RFU), membrane depolarization (MRSA) | % H, percentage hemolysis of human RBCs [7] | antibacterial activity (all the tested strains) | increase in MIC after 17 passages (S. aureus (ATCC 33591))
CCCCCCCCCCCC(=O)NCCCN(CCCCN(CCCN)C(=O)C(N)Cc1c[nH]c2ccccc12)C(=O)C(N)Cc1c[nH]c2ccccc12 (centres unmarked) [2e] | 0.0008 µg/mL (≈ 0.00106 µM) | 1.7 µg/mL (≈ 2.25 µM) | 0.8 µg/mL (≈ 1.06 µM) | 0.1136 µg/mL (≈ 0.15 µM) | 0.0017 µg/mL (≈ 0.00225 µM) | 0.0071 µg/mL (≈ 0.00938 µM) | 28.4 | significant changes in RFU | 96% | – | –
CCCCCCCCCC(=O)NCCCN(CCCCN(CCCN)C(=O)C(N)Cc1c[nH]c2ccccc12)C(=O)C(N)Cc1c[nH]c2ccccc12 (centres unmarked) [2d] | 0.0008 µg/mL (≈ 0.0011 µM) | 1.7 µg/mL (≈ 2.33 µM) | 0.8 µg/mL (≈ 1.1 µM) | 0.1136 µg/mL (≈ 0.156 µM) | 0.0017 µg/mL (≈ 0.00233 µM) | 0.0284 µg/mL (≈ 0.039 µM) | 28.4 | intermediate changes in fluorescence intensity | 83% | – | –
NCCCN(CCCCN(CCCNC(=O)C=Cc1ccc(O)c(O)c1)C(=O)C(N)Cc1c[nH]c2ccccc12)C(=O)C(N)Cc1c[nH]c2ccccc12 (centres unmarked) [2b] | >0.4544 µg/mL | 454.4 µg/mL (≈ 617 µM) | – | – | – | – | >454.4 | – | 5% | poor activity | –
NCCCN(CCCCN(CCCN)C(=O)C(N)Cc1c[nH]c2ccccc12)C(=O)C(N)Cc1c[nH]c2ccccc12 (centres unmarked) [2a] | >0.4544 µg/mL | >227.2 µg/mL | >454.4 µg/mL | – | 0.2272 µg/mL (≈ 0.395 µM) | – | >454.4 | only minor increase | 0% | poor activity | –
CCCCCC=CCC=CCCCCCCCC(=O)NCCCN(CCCCN(CCCN)C(=O)C(N)Cc1c[nH]c2ccccc12)C(=O)C(N)Cc1c[nH]c2ccccc12 (centres unmarked) [2f] | 0.0008 µg/mL (≈ 0.000956 µM) | 3.5 µg/mL (≈ 4.18 µM) | 0.8 µg/mL (≈ 0.956 µM) | 0.0568 µg/mL (≈ 0.0678 µM) | 0.0017 µg/mL (≈ 0.00203 µM) | 0.0142 µg/mL (≈ 0.017 µM) | 28.4 | significant changes in RFU | 88% | – | –
O=C(O)c1cn(C2CC2)c2cc(N3CCNCC3)c(F)cc2c1=O [ciprofloxacin, reference compound] | – | – | – | – | – | – | – | – | – | – | 256 fold
CCCCCCCCCCCC(=O)NC(Cc1c[nH]c2ccccc12)C(=O)NC(Cc1c[nH]c2ccccc12)C(=O)NCCCNCCCCNCCCN (centres unmarked) [1e] | 0.0017 µg/mL (≈ 0.00225 µM) | 3.5 µg/mL (≈ 4.62 µM) | 1.7 µg/mL (≈ 2.25 µM) | 0.0568 µg/mL (≈ 0.075 µM) | 0.0017 µg/mL (≈ 0.00225 µM) | 0.0071 µg/mL (≈ 0.00938 µM) | 14.2 | significant changes in RFU | 31% | – | –
CCCCCC=CCC=CCCCCCCCC(=O)NC(Cc1c[nH]c2ccccc12)C(=O)NC(Cc1c[nH]c2ccccc12)C(=O)NCCCNCCCCNCCCN (centres unmarked) [1f] | 0.0071 µg/mL (≈ 0.00848 µM) | 3.5 µg/mL (≈ 4.18 µM) | 1.7 µg/mL (≈ 2.03 µM) | – | 0.0071 µg/mL (≈ 0.00848 µM) | 0.0284 µg/mL (≈ 0.0339 µM) | 28.4 | significant changes in RFU | 30% | – | –
NCCCNCCCCNCCCNC(=O)C(Cc1c[nH]c2ccccc12)NC(=O)C(Cc1c[nH]c2ccccc12)NC(=O)C=Cc1ccc(O)c(O)c1 (centres unmarked) [1b] | 0.0035 µg/mL (≈ 0.00475 µM) | 7.1 µg/mL (≈ 9.63 µM) | 3.5 µg/mL (≈ 4.75 µM) | – | 0.0071 µg/mL (≈ 0.00963 µM) | 0.1136 µg/mL (≈ 0.154 µM) | 14.2 | – | 16% | – | –
